In general, IC50 refers to the concentration that inhibits the measured activity by half. A higher IC50 goes with lower potency.

The structures appear in SMILES notation.

This test has as its target SIK2 (Homo sapiens (Human), UniProt Q9H0K1). The experiment in a line: SIK2 Enzymatic Assay Version 2 (High ATP). The note with it: 3 mM ATP and 200 μM HDAC5tide final, ADP-Glo Max luminescence. The test is classed as biochemical. In outline:
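Luminescent ADP-Glo Max read-out: depletion reagent 2 h, then detection reagent 1 h. Before the reaction, compounds were incubated 30 min with enzyme added at 6 nM (twice final concentration), with all steps at room temperature.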

Sequence of SIK2 (Q9H0K1 whole entry, species assumed): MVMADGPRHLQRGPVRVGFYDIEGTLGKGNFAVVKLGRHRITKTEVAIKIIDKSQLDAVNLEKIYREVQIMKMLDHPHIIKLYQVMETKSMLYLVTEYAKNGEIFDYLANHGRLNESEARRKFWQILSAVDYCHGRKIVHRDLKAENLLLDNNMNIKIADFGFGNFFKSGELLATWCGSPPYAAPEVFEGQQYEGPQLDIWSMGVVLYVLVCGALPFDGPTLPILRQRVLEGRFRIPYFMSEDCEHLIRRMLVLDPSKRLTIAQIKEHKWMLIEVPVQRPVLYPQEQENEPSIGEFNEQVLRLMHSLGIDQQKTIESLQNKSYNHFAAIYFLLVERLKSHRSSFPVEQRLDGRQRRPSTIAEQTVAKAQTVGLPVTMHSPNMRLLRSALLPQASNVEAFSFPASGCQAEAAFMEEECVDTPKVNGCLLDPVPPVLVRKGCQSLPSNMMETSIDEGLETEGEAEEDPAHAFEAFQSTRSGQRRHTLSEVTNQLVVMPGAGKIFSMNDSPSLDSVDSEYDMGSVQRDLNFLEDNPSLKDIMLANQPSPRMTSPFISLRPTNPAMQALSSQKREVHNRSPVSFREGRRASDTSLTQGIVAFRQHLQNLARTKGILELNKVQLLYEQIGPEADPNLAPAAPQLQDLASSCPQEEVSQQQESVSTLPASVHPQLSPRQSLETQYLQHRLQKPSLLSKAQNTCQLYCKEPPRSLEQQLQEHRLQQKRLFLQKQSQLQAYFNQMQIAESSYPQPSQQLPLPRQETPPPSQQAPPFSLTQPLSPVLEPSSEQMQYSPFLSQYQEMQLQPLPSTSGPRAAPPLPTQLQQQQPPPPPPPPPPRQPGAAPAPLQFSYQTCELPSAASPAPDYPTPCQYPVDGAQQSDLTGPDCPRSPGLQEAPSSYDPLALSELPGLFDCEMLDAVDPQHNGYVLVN

`CN1CC[C@@H]1COc1cnn(C)c1-c1ccn2nc(NC(=O)c3cnn(C)c3)cc2c1` [Example 26, 1-methyl-N-[5-[2-methyl-4-[[(2R)-1-methylazetidin-2-yl]methoxy]pyrazol-3-yl]pyrazolo[1,5-a]pyridin-2-yl]pyrazole-4-carboxamide] showed an IC50 of 319 nM.
Compound `CN1CC[C@@H]1COc1cnn(C)c1-c1ccn2nc(NC(=O)[C@@H]3C[C@H]3c3ccccc3)cc2c1` (single isomer, unassigned) [Example 157, (1*R,2*R)—N-[5-[2-methyl-4-[((R)1-methylazetidin-2-yl)methoxy]pyrazol-3-yl]pyrazolo[1,5-a]pyridin-2-yl]-2-phenyl-cyclopropanecarboxamide] showed an IC50 of 11.1 nM.
In turn, `Cn1ncc(OCC2(N)CCC2)c1-c1ccn2nc(NC(=O)C3CC3)cc2c1` [Example 231, N-[5-[4-[(1-aminocyclobutyl)methoxy]-2-methyl-pyrazol-3-yl]pyrazolo[1,5-a]pyridin-2-yl]cyclopropanecarboxamide] yielded an IC50 of 46.9 nM.
`[2H]C([2H])([2H])N1CC[C@@H]1COc1cnn(C([2H])([2H])[2H])c1-c1ccn2nc(Nc3cc(C)nc(C)n3)cc2c1` [Example 355, N-(2,6-dimethylpyrimidin-4-yl)-5-[2-(trideuteriomethyl)-4-[[(2R)-1-(trideuteriomethyl)azetidin-2-yl]methoxy]pyrazol-3-yl]pyrazolo[1,5-a]pyridin-2-amine] had an IC50 of under 0.847 nM.
Take `Cc1onc(O[C@H]2C[C@@H]3C[C@H]2CN3)c1-c1ccn2nc(NC(=O)C3CC3)cc2c1` (single isomer, unassigned) [Example 217, N-(5-(3-(((1*S,4*S,5*R)-2-azabicyclo[2.2.1]heptan-5-yl)oxy)-5-methylisoxazol-4-yl)pyrazolo[1,5-a]pyridin-2-yl)cyclopropanecarboxamide]: the IC50 turned out to be 24.1 nM.
The same measure for `CN1CC(OCc2cnn(C)c2-c2ccn3nc(NC(=O)C4CC4)cc3c2)C1` [Example 361, N-[5-[2-methyl-4-[(1-methylazetidin-3-yl)oxymethyl]pyrazol-3-yl]pyrazolo[1,5-a]pyridin-2-yl]cyclopropanecarboxamide]: 53.9 nM.
The same measure for `CN1CC[C@@H]1COc1cnn(C)c1-c1ccn2nc(Nc3ccc(=O)n(C)n3)cc2c1` [Example 143, 2-methyl-6-[[5-[2-methyl-4-[[(2R)-1-methylazetidin-2-yl]methoxy]pyrazol-3-yl]pyrazolo[1,5-a]pyridin-2-yl]amino]pyridazin-3-one]: 2.4 nM.
`Cn1ncc(OC2CNC2)c1-c1ccn2nc(NC(=O)C3CC3)cc2c1` [Example 397, N-[5-[4-(azetidin-3-yloxy)-2-methyl-pyrazol-3-yl]pyrazolo[1,5-a]pyridin-2-yl]cyclopropanecarboxamide] had an IC50 of 128 nM.
In the case of `CO[C@@H]1CNC[C@@H]1Oc1cnn(C)c1-c1ccn2nc(NC(=O)C3CC3)cc2c1` (stereo in doubt) [Example 232, (rac-cis)-N-[5-[4-(4-methoxypyrrolidin-3-yl)oxy-2-methyl-pyrazol-3-yl]pyrazolo[1,5-a]pyridin-2-yl]cyclopropanecarboxamide] it was 33.2 nM; in that of `Cc1onc(OCC2(c3ccccc3)CNC2)c1-c1ccn2nc(NC(=O)C3CC3)cc2c1` [Example 199, N-[5-[5-methyl-3-[(3-phenylazetidin-3-yl)methoxy]isoxazol-4-yl]pyrazolo[1,5-a]pyridin-2-yl]cyclopropanecarboxamide], 14.1 nM.
`C[C@H]1CNC[C@H]1OCc1cnn(C)c1-c1ccn2nc(NC(=O)C3CC3)cc2c1` (single isomer, unassigned) [Example 194, (3*S,4*S)—N-[5-[2-methyl-4-[(4-methylpyrrolidin-3-yl)oxymethyl]pyrazol-3-yl]pyrazolo[1,5-a]pyridin-2-yl]cyclopropanecarboxamide] yielded a concentration for half-maximal inhibition (IC50) of 4.7 nM.

The record behind these values is patent US20240174662A1, “SMALL MOLECULE INHIBITORS OF SALT INDUCIBLE KINASES” (Janssen Biotech, Inc., priority 2021, published 2024).
